Results from PubChem BioAssay (NCI).
Values joined by “and” are separate entries in the source; they are usually repeats but may differ in a detail not shown here. Equal values may be shown once.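 Growth conditions: 96-well plates. Treatment: test compound, 48 hours, 5 concentrations. Analysis: linear interpolation between bracketing concentrations; unreached endpoints set to highest concentration. At the GI50, growth is halved. The concentration for full growth arrest is given as TGI.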

What was measured:
Assay in all cases: NCI anticancer screen, dose series, 48 h
786-0 renal = tested on: 786-0 renal
A549 NSCLC = tested on: A549 NSCLC
ACHN renal = tested on: ACHN renal
BT-549 breast = tested on: BT-549 breast
CAKI-1 renal = tested on: CAKI-1 renal
CCRF-CEM leukemia = tested on: CCRF-CEM leukemia
COLO 205 colon = tested on: COLO 205 colon
DLD-1 colon = tested on: DLD-1 colon
DMS 114 small cell lung = tested on: DMS 114 small cell lung
DMS 273 small cell lung = tested on: DMS 273 small cell lung
DU-145 prostate = tested on: DU-145 prostate
EKVX NSCLC = tested on: EKVX NSCLC
HCC-2998 colon = tested on: HCC-2998 colon
HCT-116 colon = tested on: HCT-116 colon
HCT-15 colon = tested on: HCT-15 colon
HL-60(TB) leukemia = tested on: HL-60(TB) leukemia
HOP-18 NSCLC = tested on: HOP-18 NSCLC
HOP-62 NSCLC = tested on: HOP-62 NSCLC
HOP-92 NSCLC = tested on: HOP-92 NSCLC
HS 578T breast = tested on: HS 578T breast
HT29 colon = tested on: HT29 colon
IGROV1 ovarian = tested on: IGROV1 ovarian
K-562 leukemia = tested on: K-562 leukemia
KM12 colon = tested on: KM12 colon
KM20L2 colon = tested on: KM20L2 colon
LOX IMVI melanoma = tested on: LOX IMVI melanoma
LXFL 529 NSCLC = tested on: LXFL 529 NSCLC
M14 melanoma = tested on: M14 melanoma
M19-MEL melanoma = tested on: M19-MEL melanoma
MALME-3M melanoma = tested on: MALME-3M melanoma
MCF7 breast = tested on: MCF7 breast
MDA-MB-231 breast = tested on: MDA-MB-231 breast
MDA-MB-435 = tested on: MDA-MB-435
MDA-N = tested on: MDA-N
MOLT-4 leukemia = tested on: MOLT-4 leukemia
NCI-H226 lung = tested on: NCI-H226 lung
NCI-H23 lung = tested on: NCI-H23 lung
NCI-H460 lung = tested on: NCI-H460 lung
NCI-H522 lung = tested on: NCI-H522 lung
NCI/ADR-RES ovarian = tested on: NCI/ADR-RES ovarian
OVCAR-3 ovarian = tested on: OVCAR-3 ovarian
OVCAR-4 ovarian = tested on: OVCAR-4 ovarian
OVCAR-5 ovarian = tested on: OVCAR-5 ovarian
OVCAR-8 ovarian = tested on: OVCAR-8 ovarian
PC-3 prostate = tested on: PC-3 prostate
RPMI-8226 leukemia = tested on: RPMI-8226 leukemia
RXF 393 renal = tested on: RXF 393 renal
RXF-631 renal = tested on: RXF-631 renal
SF-268 CNS = tested on: SF-268 CNS
SF-295 CNS = tested on: SF-295 CNS
SF-539 CNS = tested on: SF-539 CNS
SK-MEL-2 melanoma = tested on: SK-MEL-2 melanoma
SK-MEL-28 melanoma = tested on: SK-MEL-28 melanoma
SK-MEL-5 melanoma = tested on: SK-MEL-5 melanoma
SK-OV-3 ovarian = tested on: SK-OV-3 ovarian
SN12C renal = tested on: SN12C renal
SNB-19 CNS = tested on: SNB-19 CNS
SNB-75 CNS = tested on: SNB-75 CNS
SR leukemia = tested on: SR leukemia
SW-620 colon = tested on: SW-620 colon
T-47D breast = tested on: T-47D breast
TK-10 renal = tested on: TK-10 renal
U251 CNS = tested on: U251 CNS
UACC-257 melanoma = tested on: UACC-257 melanoma
UACC-62 melanoma = tested on: UACC-62 melanoma
UO-31 renal = tested on: UO-31 renal
XF 498 CNS = tested on: XF 498 CNS

Structure (SMILES): COc1cc2c[n+](C)c3c4ccccc4ccc3c2cc1OC (tested in a mixture with another compound)
- GI50 (786-0 renal): 4.53 µM
- TGI (786-0 renal): 39.5 µM
- TGI (A549 NSCLC): 39.3 µM
- TGI (ACHN renal): > 100 µM
- GI50 (BT-549 breast): 11 µM
- TGI (BT-549 breast): 24.6 µM
- TGI (CAKI-1 renal): > 83 µM
- GI50 (CCRF-CEM leukemia): 2.08 µM
- TGI (CCRF-CEM leukemia): > 70.6 µM
- GI50 (COLO 205 colon): 1.46 µM
- TGI (COLO 205 colon): 5.02 µM and 14 µM
- TGI (DLD-1 colon): > 100 µM
- TGI (DMS 114 small cell lung): 14.6 µM
- TGI (DMS 273 small cell lung): 15.7 µM
- GI50 (DU-145 prostate): 13.5 µM
- TGI (DU-145 prostate): 69.6 µM
- GI50 (EKVX NSCLC): 1.47 µM
- TGI (EKVX NSCLC): 41.8 µM
- GI50 (HCC-2998 colon): 6.36 µM
- TGI (HCC-2998 colon): 21.3 µM
- GI50 (HCT-116 colon): 2.55 µM
- TGI (HCT-116 colon): 27.2 µM
- TGI (HCT-15 colon): > 100 µM
- GI50 (HL-60(TB) leukemia): 4.56 µM
- TGI (HL-60(TB) leukemia): > 84.2 µM
- TGI (HOP-18 NSCLC): 76.8 µM
- GI50 (HOP-62 NSCLC): 6.41 µM
- TGI (HOP-62 NSCLC): 49.7 µM
- GI50 (HOP-92 NSCLC): 5.25 µM
- TGI (HOP-92 NSCLC): 28.6 µM
- GI50 (HS 578T breast): 3.35 µM
- TGI (HS 578T breast): 18.4 µM
- GI50 (HT29 colon): 3.94 µM
- TGI (HT29 colon): 32.4 µM
- GI50 (IGROV1 ovarian): 2.75 µM
- TGI (IGROV1 ovarian): 44.1 µM
- GI50 (K-562 leukemia): 2.29 µM
- GI50 (KM12 colon): 0.544 µM
- TGI (KM12 colon): 2.5 µM and 13.2 µM
- TGI (KM20L2 colon): 37.9 µM
- GI50 (LOX IMVI melanoma): 4.02 µM
- TGI (LOX IMVI melanoma): 30.9 µM
- TGI (LXFL 529 NSCLC): 16 µM
- GI50 (M14 melanoma): 8.31 µM
- TGI (M14 melanoma): 51.9 µM
- TGI (M19-MEL melanoma): 15.4 µM
- GI50 (MALME-3M melanoma): 1.28 µM
- TGI (MALME-3M melanoma): 3.25 µM and 14 µM
- GI50 (MCF7 breast): 19.8 µM
- GI50 (MDA-MB-231 breast): 10.3 µM
- TGI (MDA-MB-231 breast): 9.2 µM and 25.6 µM
- GI50 (MDA-MB-435): 8.92 µM
- TGI (MDA-MB-435): 21.5 µM
- TGI (MDA-N): 20.5 µM
- GI50 (MOLT-4 leukemia): 0.514 µM
- TGI (MOLT-4 leukemia): 50.5 µM
- TGI (NCI-H226 lung): 33 µM
- TGI (NCI-H23 lung): 31.7 µM
- GI50 (NCI-H460 lung): 2.96 µM
- TGI (NCI-H460 lung): 31.7 µM
- GI50 (NCI-H522 lung): 0.785 µM
- TGI (NCI-H522 lung): 4.37 µM and 11.6 µM
- TGI (NCI/ADR-RES ovarian): > 100 µM
- GI50 (OVCAR-3 ovarian): 1.64 µM
- TGI (OVCAR-3 ovarian): 7.41 µM and 21.4 µM
- GI50 (OVCAR-4 ovarian): 4.04 µM
- TGI (OVCAR-4 ovarian): 43.2 µM
- GI50 (OVCAR-5 ovarian): 4.67 µM
- TGI (OVCAR-5 ovarian): 52.7 µM
- GI50 (OVCAR-8 ovarian): 3.57 µM
- TGI (OVCAR-8 ovarian): 31.7 µM
- TGI (PC-3 prostate): 20.1 µM
- GI50 (RPMI-8226 leukemia): 1.71 µM
- TGI (RXF 393 renal): 54.4 µM
- TGI (RXF-631 renal): > 66.1 µM
- TGI (SF-268 CNS): 2.86 µM and 10.4 µM
- TGI (SF-295 CNS): 71.5 µM
- GI50 (SF-539 CNS): 1.54 µM
- TGI (SF-539 CNS): 5.65 µM and 25 µM
- GI50 (SK-MEL-2 melanoma): 4.25 µM
- TGI (SK-MEL-2 melanoma): 21.8 µM
- GI50 (SK-MEL-28 melanoma): 2.89 µM
- TGI (SK-MEL-28 melanoma): 8.22 µM and 18.6 µM
- GI50 (SK-MEL-5 melanoma): 7.6 µM
- TGI (SK-MEL-5 melanoma): 29 µM
- TGI (SK-OV-3 ovarian): 51.2 µM
- GI50 (SN12C renal): 1.07 µM
- TGI (SN12C renal): 5.58 µM and 17.7 µM
- GI50 (SNB-19 CNS): 0.964 µM
- TGI (SNB-19 CNS): 25.1 µM
- GI50 (SNB-75 CNS): 3.11 µM
- TGI (SNB-75 CNS): 8.49 µM and 15 µM
- GI50 (SR leukemia): 0.818 µM
- GI50 (SW-620 colon): 2.71 µM
- TGI (SW-620 colon): 48 µM
- GI50 (T-47D breast): 4.68 µM
- TGI (T-47D breast): 63.3 µM
- TGI (TK-10 renal): 87.3 µM
- GI50 (U251 CNS): 1.31 µM
- TGI (U251 CNS): 6.36 µM and 16.9 µM
- GI50 (UACC-257 melanoma): 2.11 µM
- TGI (UACC-257 melanoma): 6.15 µM and 49 µM
- GI50 (UACC-62 melanoma): 3.08 µM
- TGI (UACC-62 melanoma): 20.3 µM
- TGI (UO-31 renal): > 100 µM
- TGI (XF 498 CNS): 17.7 µM
